By IC50 is commonly meant the concentration needed to halve the response being measured. The term IC90 denotes the point of the concentration-response curve where the effect stands at 90%. One may read the Cmax as the maximum level reached in the sampled fluid or tissue.

Data on eight molecules can be found in paper PMC7997640, “Potential anti-COVID-19 agents, cepharanthine and nelfinavir, and their usage for combination treatment” (iScience, 2021).

For series [1], the system named is SARS-CoV-2. The class given is cell-based. The settings on record: VeroE6/TMPRSS2, 48 hr.
Series [2] deals with SARS-CoV-2. The class given is cell-based.
Series [3] deals with SARS-CoV-2. It counts as cell-based. This is another data set of the same source.
Series [4] has as its system SARS-CoV-2. As to the kind of experiment: Virus-cell binding assay at 4°C. The class given is cell-based.
For series [5], the system named is SARS-CoV-2.
The nature of series [6]: in vitro. The settings on record: African green monkey.
In series [7] the test system is SARS-CoV-2. As to the kind of experiment: microbe, parasite or virus in culture. The conditions noted are these: for IC90: read-out: SARS-CoV-2 RNA IC90.
The subject of series [8] is SARS-CoV-2. In words: Chemical screening of 306 approved drugs by cytopathic effect assay. The class given is cell-based. In general terms: Cytopathic effects are the visible damage that an infection or toxin causes in cultured cells.
For series [9], the system named is SARS-CoV-2. As to the kind of experiment: Viral N protein immunofluorescence in Calu-3 cells. The class given is cell-based.
Series [10] concerns the target SARS-CoV-2 main protease (Severe acute respiratory syndrome coronavirus 2, UniProt P0DTD1). In words: biochemical.
The subject of series [11] is SARS-CoV-2. In words: microbe, parasite or virus in culture. The class given is cell-based.
For series [12] the following is noted: expected in human lung.
For series [13] the following is noted: patients, 500 mg NFV orally; ref Markowitz et al., 1998; read-out: serum Cmax; cited from earlier work.
The test system of series [14] is SARS-CoV. The conditions noted are these: ref Liu et al., 2005, Wu et al., 2004, Yamamoto et al.; cited from earlier work.
Series [15] in a line: clinical. The settings on record: human, po, 500 mg.
The mark [16] stands for this setting: VeroE6/TMPRSS2, 24 hr, LPV 16 μM, CLQ 16 μM, RDV 20 μM, CEP 8 μM, NFV 4 μM.
Setting [17] is: secreted viral RNA 24 hr, RDV 15 μM, CLQ 15 μM, CEP 8.2 μM, NFV 4 μM.
Setting [18] is: Table S1, Single-drug treatment.
[19] abbreviates: Severe acute respiratory syndrome coronavirus 2, VeroE6/TMPRSS2, 24 h, read-out: SARS-CoV-2 RNA IC50.
[20] abbreviates: Severe acute respiratory syndrome coronavirus 2, VeroE6/TMPRSS2, 24 h.
[21] abbreviates: Severe acute respiratory syndrome coronavirus 2, read-out: IC50 (Hill function fit).

Like-named read-outs stand apart in the source and are kept apart here.

Turning to `CCN(CC)CCCC(C)Nc1ccnc2cc(Cl)ccc12` (stereo not drawn) [CLQ, chloroquine], the virus-induced cytopathicity result in series [1] is “reduced virus-induced cytopathicity”. The N protein expression entry in series [2] (setting [16]) is on record as “significantly reduced N protein expression”. The “step of life cycle inhibited (time-of-addition)” value (shortened to “step of life cycle inhibited”) in series [3] (setting [17]) is recorded as “activity in the early stages of infection”. Moreover, in series [4], the “SARS-CoV-2 binding to cells (cell-bound viral RNA)” value was “negligible effect”. Further, the “antiviral activity on viral RNA” value in series [5] is “inhibited viral RNA”. Also, the “m, slope of the dose-response curve (Hill coefficient)” value (“m, slope of the dose-response curve” below) in [5] (setting [18]) stood at 1.984. Besides, the CC50 in series [6] was greater than 64 µM. The IC50 in series [7] (setting [19]) and in [7] (setting [21]) was 1310 nM throughout. Moreover, the IC90 in [7] (setting [20]) was determined as 3.97 µM.

For the molecule `NC(=O)c1nc(F)c[nH]c1=O` [FPV, favipiravir], the “antiviral activity on viral RNA” value in [5] was “negligible antiviral activity”. This molecule also came in with a CC50 in [6] greater than 64 µM. For the same molecule, the IC50 in [7] (setting [19]) was greater than 64000 nM. Further, the IC90 in series [7] (setting [20]) was greater than 64 µM.

In the case of `Cc1cccc(C)c1OCC(=O)N[C@@H](Cc1ccccc1)[C@@H](O)C[C@H](Cc1ccccc1)NC(=O)[C@H](C(C)C)N1CCCNC1=O` [LPV, lopinavir], the virus-induced cytopathicity result in [1] is listed as “reduced virus-induced cytopathicity”. For the same molecule, the N protein expression entry in [2] (setting [16]) was “significantly reduced N protein expression”. For the same molecule, the “screening outcome (hit = cell survival more than 20-fold of the control)” value in series [8] was “identified as hits”. Moreover, the “antiviral activity on viral RNA” value in series [5] is on record as “inhibited viral RNA”. The “m, slope of the dose-response curve” value in [5] (setting [18]) came out at 3.852. Besides, the CC50 in series [6] was found to be 54.9 µM. In addition, the IC50 was 3070 nM in [7] (setting [19]) and 3610 nM in [7] (setting [21]). Further, in series [7] (setting [20]), the IC90 was 5.43 µM.

Turning to `CCOC(=O)O[C@]1(C(=O)OCCl)CC[C@H]2[C@@H]3CCC4=CC(=O)C=C[C@]4(C)[C@H]3[C@@H](O)C[C@@]21C` [Loteprednol], the “screening outcome (hit = cell survival more than 20-fold of the control)” value in series [8] was “identified as hits”.

As for `Cc1c(O)cccc1C(=O)N[C@@H](CSc1ccccc1)[C@H](O)CN1C[C@H]2CCCC[C@H]2C[C@H]1C(=O)NC(C)(C)C` [NFV, nelfinavir], the virus-induced cytopathicity result in [1] is “greatest anti-cytopathic activity”. In [2] (setting [16]), the N protein expression entry is on record as “significantly reduced N protein expression”. For the same molecule, the “SARS-CoV-2 proliferation in Calu-3 cells (N protein)” value in series [9] is on record as “inhibit SARS-CoV-2 proliferation”. Besides, in series [3] (setting [17]), the “step of life cycle inhibited” value is given as “clearly inhibited the post-entry process”. The IC50 turned out to be 37 µM in series [10], 1320 nM in [11] (setting [21]), 770 nM in [7] (setting [19]) and 765 nM in series [7] (setting [21]). Further, the “m, slope of the dose-response curve” value in [11] (Table S1, Combination treatment experiment) was 4.043; in series [5] (setting [18]), 5.079. Moreover, the “viral RNA, % of untreated control” value in series [11] ([…], CEP 3.20 μM, NFV 2.24 μM, alone or combined) was found to be 5.8%. Moreover, the “screening outcome (hit = cell survival more than 20-fold of the control)” value in [8] is recorded as “identified as hits”. The “viral RNA levels, % of the untreated control infections” value in series [5] is recorded as 0.001–0.01%. Also, the “window (CC50/IC50)” value in [5] is reported as greater than 70 fold. In series [12], this molecule displayed a Degradation rate k of 4.89 day⁻¹. The figures for the Cmax in [13] and in [15] were 6.9 µM and 9.32 µM, respectively. Further, the “replication of SARS-CoV” value in series [14] is recorded as “inhibit the replication”. In addition, the CC50 in series [6] was greater than 64 µM. Further, the 90% effect concentration (IC90) in series [7] (setting [20]) came to 1.18 µM.

For the molecule `CCC(CC)COC(=O)[C@H](C)N[P@](=O)(OC[C@H]1O[C@@](C#N)(c2ccc3c(N)ncnn23)[C@H](O)[C@@H]1O)Oc1ccccc1` [RDV, Remdesivir], in [2], the N protein expression result is given as “significantly reduced N protein expression”. Besides, the “step of life cycle inhibited” value in [3] was “negligible effect on virus entry”. Moreover, in series [5], the “antiviral activity on viral RNA” value is listed as “inhibited viral RNA” and the “m, slope of the dose-response curve” value is listed as 3.048. In series [6], the CC50 was greater than 64 µM. Besides, in series [7] (setting [19]), the IC50 is 1580 nM. In addition, the IC90 in series [7] (setting [20]) was found to be 3.24 µM. For the same molecule, the IC50 in series [7] (setting [21]) stood at 1580 nM.

`CO[C@H]1C[C@@H]2CC[C@@H](C)[C@@](O)(O2)C(=O)C(=O)N2CCCC[C@H]2C(=O)O[C@H]([C@H](C)C[C@@H]2CC[C@@H](O)[C@H](OC)C2)CC(=O)[C@H](C)/C=C(\C)[C@@H](O)[C@@H](OC)C(=O)[C@H](C)C[C@H](C)/C=C/C=C/C=C/1C` [Rapamycin]: the “screening outcome (hit = cell survival more than 20-fold of the control)” value in [8] is “identified as hits”.

On to heparin, for which the “SARS-CoV-2 binding to cells (cell-bound viral RNA)” value in series [4] is “significantly blocked SARS-CoV-2 particle attachment”.
